Laboratory results: US10383844B2, “Methods for treating pulmonary fibrosis using chromenone derivatives” (College of Medicine Pochon Cha University Industry—Academic …, priority 2017, dated 2019)

Legend:
L132 cells [1] = assay: Degree of EMT induced by TGF-beta in L132 cells (western blots); type: cell-based; details: L132, 0.1 μM, 1 hour later TGF-beta 5 ng/mL for 48 hours, FIG. 3(A)
Method: (§1) For the experiment, L132 cells were cultured at 37° C. in a 5% CO2 incubator by using an RPMI 1640 (RPMI, GIBCO-Invitrogen, Paisley, Scotland, UK) medium containing 10% FBS and 1× Antibiotic-Antimycotic (GIBCO-Invitrogen, Paisley, Scotland, UK).
(§2) To carry out the western blots, the treated cells were respectively washed twice with 1×PBS (0.14 M NaCl, 2.68 mM KCl, 10 mM Na2HPO4, 1.83 mM KH2PO4), after which the resulting cells were dissolved in a protein lysis buffer (100 mM Tris-HCl (pH 7.5), 50 mM NaCl, 5 mM EDTA (pH 8.0), 0.5% NP-40, 0.5% Sodium deoxycholate, 50 mM β-glycerophosphate, 0.1 mM Na3VO4, 50 mM NaF). A cell suspension was centrifuged at 13000 rpm for 30 minutes, after which only a supernatant thereof was taken out, such that 1% BSA solution was injected by 8, 6, 4, 2 and 0 μL into Protein Dye 1 mL as a standard by using a Bradford assay and 2 μL of the supernatant was added thereinto. The resulting solution was divided by 200 μL into each of a 96-well plate, after which the resulting plate was put into an ELISA reader to measure an optical observance thereof at an wavelength of 595 nm, such that a 6× sample buffer (0.35 M Tris (pH 6.8), 3% glycerol, 1% Sodium Dodecyl Sulfate, 6 mM Dithiothreitol) was injected to make a sample containing the same amount of protein. Then, the resulting sample was soaked in 100° C. water and boiled for 5 minutes and the same amount of protein was analyzed by using SDS-PAGE. A primary antibody used for the western blots was anti-HSP27 and β-actin (Santacruz, sc-13132 and sc-47778), and also anti-E-cadherin (BD, #610181), anti-Vimentin (BD, #550513), anti-Fibronectin (BD, #610077), anti-snail (Cell signaling, #3895S), anti-alpha-smooth muscle actin (Sigma, A5228), and anti-Zo-1 (Life technologies, #402200) were used. A secondary antibody used was Goat anti rabbit and Goat anti mouse (Santacruz, sc-2004 and sc-2005).
To identify a degree of EMT according to a production of altered HSP27 dimers in cells, L132, a normal lung cell, was treated with Compound 1 of the present invention at a 0.1 μM concentration, and in 1 hour later the cell was treated with TGF-beta at a 5 ng/mL concentration for 48 hours. Then, a cell culture and western blots were performed in the same method as the above Experimental Example 1.

L132 cells [2] = assay: Degree of radiation-induced EMT in L132 cells (western blots); type: cell-based; details: L132, 0.1 μM, 1 hour later radiation 5 Gy, 48 hours, FIG. 3(B)
Method: as §1
as §2, with “sc-2005). […]” for “sc-2005).”

[3] = tested on: radiation-induced pulmonary fibrosis; assay: Small animal model of radiation-induced pulmonary fibrosis (local lung irradiation); type: in vivo; details: C57BL/6 male mouse, left lung 75 Gy, 13.6 mg/kg intraperitoneally three times a week, FIG. 4(B)
Method: To identify an anti-pulmonary fibrosis effect according to a production of HSP27 dimers in a small animal model on lung side effects with clinically analogous irradiation, the small animal model was exposed to a radiation dose in a range of high dose clinical radiotherapy to induce a pulmonary fibrosis process.
As shown in FIG. 4(A), a 10 week-old C57BL/6 male mouse was anesthetized with an anesthetic mixture of 30 mg/kg Zoletil and 10 mg/kg Rompun, after which a left lung of the mouse was exposed to a high dose radiation of 75 Gy in a 3 mm range by using X-Rad 320 (Precision, North Branford, Conn., USA). Then, Compound 1 of the present invention was intraperitoneally administered to the mouse at a 13.6 mg/kg concentration three times a week. During its sacrifice, the mouse was anesthetized, after which 10% formalin was injected into the anesthetized mouse through an airway thereof to fix its lung, such that a tissue sample was prepared by using a paraffin embedding.
An amount of collagen was histologically identified through Masson's trichrome dyeing to compare degrees of pulmonary fibrosis with each other.

| melting point | Structure (SMILES) | altered HSP dimers (L132 cells [1]) | expression of E-cadherin (marker of epithelial cells) (L132 cells [1]) | expression of Fibronectin (marker of mesenchymal cells) (L132 cells [1]) | expression of Snail (marker of mesenchymal cells) (L132 cells [1]) | expression of E-cadherin (L132 cells [2]) | expression of Twist (marker of mesenchymal cells) (L132 cells [2]) | expression of Zo-1 (L132 cells [2]) | immune response lesion in locally irradiated lung region (naked eye) [3] |
| --- | --- | --- | --- | --- | --- | --- | --- | --- | --- |
| 95 to 96 °C | Cc1cc(=O)c2c(OCC3CS3)cc(OCC3CS3)cc2o1 (stereo not drawn) |  |  |  |  |  |  |  |  |
|  | Cc1cc(=O)c2c(O)cc(OCC3CS3)cc2o1 (stereo not drawn) [Compound 1, 5-hydroxy-2-methyl-7-(thiirane-2-ylmethoxy)-4H-chromene-4-one] | increasing altered HSP dimers in a dose-dependent manner | mitigating a decrease | inhibiting an increase | inhibiting an increase | mitigated a decrease | inhibited an increase | mitigated a decrease | the lesion was recovered |
